Measurements taken from PubChem BioAssay AID256 (DTP/NCI, 2004).
Several values for one entry are separate records, joined by “and”; a condition that tells them apart may be missing. Equal values may be shown once. Inconclusive results and toxic doses are left out. The calls were made as follows: active = survival T/C of 150% or more; inactive = T/C below 125% in these data.

Test system: CD2F1 mice, L1210 leukemia ip, survival T/C
Experiment: NCI In Vivo Anticancer Drug Screen. Data for tumor model L1210 Leukemia (intraperitoneal) in CD2F1 (CDF1) mice
Conditions: higher = longer survival
In short: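 Antitumor effect is scored in animals hosting a serially transplanted tumor. Values compare compound-dosed animals against vehicle-only controls as a simple quotient.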

[1] = endpoint: mean survival time, dose: 100.0 mg/kg/injection, schedule: Q04DX003 (ip), vehicle: saline with Tween-80
[2] = endpoint: mean survival time, dose: 200.0 mg/kg/injection, schedule: Q04DX003 (ip), vehicle: saline with Tween-80
[3] = endpoint: mean survival time, dose: 400.0 mg/kg/injection, schedule: Q04DX003 (ip), vehicle: saline with Tween-80
[4] = endpoint: mean survival time, dose: 50.0 mg/kg/injection, schedule: Q01DX009 (ip), vehicle: saline with Tween-80
[5] = endpoint: mean survival time, dose: 100.0 mg/kg/injection, schedule: Q01DX009 (ip), vehicle: saline with Tween-80
[6] = endpoint: mean survival time, dose: 200.0 mg/kg/injection, schedule: Q01DX009 (ip), vehicle: saline with Tween-80
[7] = endpoint: mean survival time, dose: 100.0 mg/kg/injection, schedule: Q01DX001 (ip), vehicle: saline with Tween-80
[8] = endpoint: mean survival time, dose: 200.0 mg/kg/injection, schedule: Q01DX001 (ip), vehicle: saline with Tween-80
[9] = endpoint: mean survival time, dose: 400.0 mg/kg/injection, schedule: Q01DX001 (ip), vehicle: saline with Tween-80

Measured: T/C

O=C(O)c1cscn1.O=C(O)c1cscn1.[I][Pt][I]
inactive: endpoint: mean survival time, dose: 3.12 mg/kg/injection, schedule: Q04DX003 (ip), vehicle: distilled water + Tween-80 108 % of control | endpoint: mean survival time, dose: 6.25 mg/kg/injection, schedule: Q04DX003 (ip), vehicle: distilled water + Tween-80 101 % of control | endpoint: mean survival time, dose: 12.5 mg/kg/injection, schedule: Q04DX003 (ip), vehicle: distilled water + Tween-80 104 % of control | endpoint: mean survival time, dose: 25.0 mg/kg/injection, schedule: Q04DX003 (ip), vehicle: distilled water + Tween-80 102 % of control | endpoint: mean survival time, dose: 50.0 mg/kg/injection, schedule: Q04DX003 (ip), vehicle: distilled water + Tween-80 104 % of control | endpoint: mean survival time, dose: 50.0 mg/kg/injection, schedule: Q04DX003 (ip), vehicle: saline with Tween-80 110 % of control | endpoint: mean survival time, dose: 100.0 mg/kg/injection, schedule: Q04DX003 (ip), vehicle: distilled water + Tween-80 114 % of control | [1] 104 % of control | endpoint: mean survival time, dose: 200.0 mg/kg/injection, schedule: Q04DX003 (ip), vehicle: distilled water + Tween-80 119 % of control | [2] 122 % of control | [3] 112 % of control

Cc1ccc(C(=O)C(=O)c2ccc(C)cc2C)c(C)c1
inactive: endpoint: mean survival time, dose: 75.0 mg/kg/injection, schedule: Q01DX001 (ip), vehicle: other 94 % of control | endpoint: mean survival time, dose: 150.0 mg/kg/injection, schedule: Q01DX001 (ip), vehicle: other 87 % of control | endpoint: mean survival time, dose: 300.0 mg/kg/injection, schedule: Q01DX001 (ip), vehicle: other 94 % of control

c1ccc2c(c1)[As]=c1ccccc1=[As]2 (stereo not drawn)
inactive: endpoint: median survival time, dose: 1.5 mg/kg/injection, schedule: Q01DX009 (ip), vehicle: saline with Tween-80 108 % of control | endpoint: median survival time, dose: 3.0 mg/kg/injection, schedule: Q01DX009 (ip), vehicle: saline with Tween-80 101 % of control | endpoint: median survival time, dose: 6.0 mg/kg/injection, schedule: Q01DX009 (ip), vehicle: saline with Tween-80 102 % of control and 104 % of control | endpoint: median survival time, dose: 12.0 mg/kg/injection, schedule: Q01DX009 (ip), vehicle: saline with Tween-80 113 % of control and 109 % of control | endpoint: median survival time, dose: 24.0 mg/kg/injection, schedule: Q01DX009 (ip), vehicle: saline with Tween-80 106 % of control | endpoint: median survival time, dose: 48.0 mg/kg/injection, schedule: Q01DX009 (ip), vehicle: saline with Tween-80 100 % of control

Nc1ccn(C2CC3OCC3O2)c(=O)n1 (stereo not drawn)
inactive: endpoint: median survival time, dose: 12.5 mg/kg/injection, schedule: Q01DX005 (ip), vehicle: saline 97 % of control | endpoint: median survival time, dose: 25.0 mg/kg/injection, schedule: Q01DX005 (ip), vehicle: saline 105 % of control | endpoint: median survival time, dose: 50.0 mg/kg/injection, schedule: Q01DX005 (ip), vehicle: saline 103 % of control | endpoint: median survival time, dose: 100.0 mg/kg/injection, schedule: Q01DX005 (ip), vehicle: saline 110 % of control | endpoint: median survival time, dose: 200.0 mg/kg/injection, schedule: Q01DX005 (ip), vehicle: saline 104 % of control

CCCC/C=C\C(=O)OC
inactive: [4] 101 % of control | [5] 104 % of control | [6] 101 % of control

CC1=NNC(=O)C1NNc1ccccc1 (stereo not drawn)
inactive: [1] 96 % of control | [2] 96 % of control | [3] 96 % of control

Cc1cc(N2CCN(C)CC2)n2nc(-c3ccc(Cl)cc3)nc2n1
inactive: endpoint: mean survival time, dose: 50.0 mg/kg/injection, schedule: Q01DX001 (ip), vehicle: Klucel (hydroxypropylcellulose) (HPC) 120 % of control | endpoint: mean survival time, dose: 50.0 mg/kg/injection, schedule: Q01DX009 (ip), vehicle: Klucel (hydroxypropylcellulose) (HPC) 100 % of control | endpoint: mean survival time, dose: 100.0 mg/kg/injection, schedule: Q01DX001 (ip), vehicle: Klucel (hydroxypropylcellulose) (HPC) 95 % of control | endpoint: mean survival time, dose: 100.0 mg/kg/injection, schedule: Q01DX009 (ip), vehicle: Klucel (hydroxypropylcellulose) (HPC) 99 % of control | endpoint: mean survival time, dose: 200.0 mg/kg/injection, schedule: Q01DX001 (ip), vehicle: Klucel (hydroxypropylcellulose) (HPC) 93 % of control | endpoint: mean survival time, dose: 200.0 mg/kg/injection, schedule: Q01DX009 (ip), vehicle: Klucel (hydroxypropylcellulose) (HPC) 97 % of control

Cc1cc(C)cc(C(C)(C)C)c1
inactive: [5] 96 % of control | [6] 102 % of control

Cc1c(C)c(CSC#N)c(C)c(C)c1CSC#N
inactive: endpoint: mean survival time, dose: 75.0 mg/kg/injection, schedule: Q04DX003 (ip), vehicle: saline 98 % of control | endpoint: mean survival time, dose: 150.0 mg/kg/injection, schedule: Q04DX003 (ip), vehicle: saline 102 % of control | endpoint: mean survival time, dose: 300.0 mg/kg/injection, schedule: Q04DX003 (ip), vehicle: saline 95 % of control

CN(C)c1nc2c(c(=O)n(C)c(=O)n2C)n1C
inactive: endpoint: mean survival time, dose: 12.5 mg/kg/injection, schedule: Q01DX005 (ip), vehicle: distilled water + Tween-80 94 % of control | endpoint: mean survival time, dose: 25.0 mg/kg/injection, schedule: Q01DX005 (ip), vehicle: distilled water + Tween-80 93 % of control | endpoint: mean survival time, dose: 50.0 mg/kg/injection, schedule: Q01DX005 (ip), vehicle: distilled water + Tween-80 93 % of control | endpoint: mean survival time, dose: 100.0 mg/kg/injection, schedule: Q01DX005 (ip), vehicle: distilled water + Tween-80 88 % of control

CCOC(=O)/C=C\C1CCCCC1
inactive: [4] 93 % of control | [5] 108 % of control | [6] 104 % of control

CN(C)N=Nc1ccccc1C(=O)NNC(=O)CC#N
inactive: endpoint: mean survival time, dose: 18.75 mg/kg/injection, schedule: Q01DX009 (ip), vehicle: Klucel (hydroxypropylcellulose) (HPC) 88 % of control and 97 % of control | endpoint: mean survival time, dose: 37.5 mg/kg/injection, schedule: Q01DX009 (ip), vehicle: Klucel (hydroxypropylcellulose) (HPC) 92 % of control and 100 % of control | endpoint: mean survival time, dose: 75.0 mg/kg/injection, schedule: Q01DX009 (ip), vehicle: Klucel (hydroxypropylcellulose) (HPC) 93 % of control and 111 % of control | endpoint: mean survival time, dose: 150.0 mg/kg/injection, schedule: Q01DX009 (ip), vehicle: Klucel (hydroxypropylcellulose) (HPC) 113 % of control and 102 % of control | endpoint: mean survival time, dose: 300.0 mg/kg/injection, schedule: Q01DX009 (ip), vehicle: Klucel (hydroxypropylcellulose) (HPC) 120 % of control and 111 % of control

CC(CCc1ccccc1)NC1=NCCO1 (stereo not drawn)
inactive: [5] 102 % of control | [1] 98 % of control | [6] 95 % of control | [2] 103 % of control | endpoint: mean survival time, dose: 400.0 mg/kg/injection, schedule: Q01DX009 (ip), vehicle: saline with Tween-80 98 % of control | [3] 95 % of control

C=Cc1c(C)c2cc3[nH]c(cc4nc(cc5nc(cc1[nH]2)C(C)=C5CCC(=O)O)C(CCC(=O)O)=C4C)c(C)c3C=C
inactive: endpoint: mean survival time, dose: 12.5 mg/kg/injection, schedule: Q01DX009 (ip), vehicle: saline with Tween-80 88 % of control | endpoint: mean survival time, dose: 25.0 mg/kg/injection, schedule: Q01DX009 (ip), vehicle: saline with Tween-80 88 % of control | [4] 88 % of control

CC(C)(C)NC(=O)Nc1ccc(Cl)c(Cl)c1
inactive: [7] 93 % of control | [8] 88 % of control | [9] 93 % of control

O=C(O)Cc1ccccc1[N+](=O)[O-]
inactive: [7] 106 % of control | [8] 101 % of control | [9] 101 % of control

CN(C)C=C1C(=O)NC(=O)NC1=O
inactive: endpoint: mean survival time, dose: 100.0 mg/kg/injection, schedule: Q01DX001 (ip), vehicle: saline 91 % of control | endpoint: mean survival time, dose: 200.0 mg/kg/injection, schedule: Q01DX001 (ip), vehicle: saline 87 % of control

C1CC[N-]CC1.C1CC[N-]CC1.C1CC[N-]CC1.C1CC[N-]CC1.[Co].[N-]=C=S.[N-]=C=S
inactive: endpoint: mean survival time, dose: 100.0 mg/kg/injection, schedule: Q04DX002 (ip), vehicle: saline with Tween-80 123 % of control

CN(C)C1c2cc(Cl)ccc2-c2ccc(Cl)cc21
inactive: endpoint: mean survival time, dose: 50.0 mg/kg/injection, schedule: Q01DX001 (ip), vehicle: carboxymethylcellulose (CMC) 101 % of control | endpoint: mean survival time, dose: 100.0 mg/kg/injection, schedule: Q01DX001 (ip), vehicle: carboxymethylcellulose (CMC) 95 % of control | endpoint: mean survival time, dose: 200.0 mg/kg/injection, schedule: Q01DX001 (ip), vehicle: carboxymethylcellulose (CMC) 101 % of control | endpoint: mean survival time, dose: 400.0 mg/kg/injection, schedule: Q01DX001 (ip), vehicle: carboxymethylcellulose (CMC) 98 % of control

O=C(O)/C=C\C(=O)Nc1ccc(Cl)cc1Cl
inactive: [5] 103 % of control | [6] 95 % of control
